Reference: patent US12441719B2, “Inhibitors of SARM1” (Disarm Therapeutics, Inc., priority 2019, dated 2025)

Target: T1, SARM1 (Homo sapiens, UniProt Q6SZW1)
T1 construct: AviTag […]; made in house; host or cells: NRK1-HEK293T cells, transiently transfected; the clarified sonicated lysate was used without purification
T1 sequence (Q6SZW1 with tags, fused parts or gaps): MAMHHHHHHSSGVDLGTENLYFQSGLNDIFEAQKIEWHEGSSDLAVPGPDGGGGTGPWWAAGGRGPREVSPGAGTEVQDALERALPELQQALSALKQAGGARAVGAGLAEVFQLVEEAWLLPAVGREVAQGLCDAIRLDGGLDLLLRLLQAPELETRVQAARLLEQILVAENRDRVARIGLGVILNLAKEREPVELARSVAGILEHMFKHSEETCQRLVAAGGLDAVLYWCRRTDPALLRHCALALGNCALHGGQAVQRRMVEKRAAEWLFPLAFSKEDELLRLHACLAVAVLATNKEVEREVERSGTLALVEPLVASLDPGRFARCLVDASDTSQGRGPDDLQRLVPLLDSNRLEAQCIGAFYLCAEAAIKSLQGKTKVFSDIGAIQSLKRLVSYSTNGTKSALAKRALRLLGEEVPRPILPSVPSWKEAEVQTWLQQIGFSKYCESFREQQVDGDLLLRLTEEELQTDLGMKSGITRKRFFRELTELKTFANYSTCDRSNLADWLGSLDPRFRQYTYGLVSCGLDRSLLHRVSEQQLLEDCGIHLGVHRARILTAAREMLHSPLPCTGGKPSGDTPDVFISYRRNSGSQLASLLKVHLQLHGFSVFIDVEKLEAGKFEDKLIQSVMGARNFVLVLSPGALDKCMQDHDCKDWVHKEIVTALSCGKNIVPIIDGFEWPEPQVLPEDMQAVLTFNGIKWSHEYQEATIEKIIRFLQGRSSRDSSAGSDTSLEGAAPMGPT
Experiment: ARM-SAM-TIR SARM1 IC50 assay (NADase activity, NAD+ cleavage)
Type: biochemical
Settings: ARM-SAM-TIR lysate 5 μg/mL from NRK1-HEK293T cells; 2 h pre-incubation with compound, 5 μM NAD+, 2 hr room temperature; NAD+ and ADPR by RapidFire mass spectrometry; read-out: SARM1 IC50
From the text: This Example describes an assay of ARM-SAM-TTR NADase activity and use of this assay to measure the efficacy of compounds of Formula I or Formula II to block SARM1 mediated NAD+ cleavage. This assay is optimized in such a way as to characterize the efficacy of the compounds in Formula I or Formula II to inhibit SARM1 activity and to calculate an IC50 value for each compound. This assay makes use of full length SARI, which encompasses the ARM, SAM and TTR domains.
Preparation of ARM-SAM-TIR Lysate (STL)
NRK1-HEK293T cells were seeded onto 150 cm^2 plates at 20×10^6 cells per plate. The next day, the cells were transfected with 15 μg ARM-SAM-TIR expression plasmid, SEQ ID NO: 1.
The cultures were supplemented with 1 mM NR at time of transfection to minimize toxicity from ARM-SAM-TIR overexpression. Forty-eight hours after transfection, cells were harvested, pelleted by centrifugation at 1,000 rpm (Sorvall ST 16R centrifuge, Thermo Fisher), and washed once with cold PBS (0.01 M phosphate buffered saline NaCl 0.138 M; KCl 0.0027 M; pH 7.4). The cells were resuspended in PBS with protease inhibitors (cOmplete™ protease inhibitor cocktail, Roche product #11873580001) and cell lysates were prepared by sonication (Branson Sonifer 450, output=3, 20 episodes of stroke). The lysates were centrifuged (12,000×g for 10 min at 4° C.) to remove cell debris and the supernatants (containing ARM-SAM-TIR protein) were stored at −80° C. for later use in the in vitro ARM-SAM-TIR NADase assay (see below). Protein concentration was determined by the Bicinchoninic (BCA) method and used to normalize lysate concentrations.
ARM-SAM-TIR IC50 Assay of Formula I or Formula II Compounds.
The enzymatic assay was performed in a 384-well polypropylene plate in Dulbecco's PBS buffer in a final assay volume of 20 μL. ARM-SAM-TIR lysate with a final concentration of 5 μg/mL was pre-incubated with the respective compound at 1% DMSO final assay concentration over 2 h at room temperature. The reaction was initiated by addition of 5 μM final assay concentration of NAD+ as substrate. After a 2 hr room temperature incubation, the reaction was terminated with 40 μL of stop solution of 7.5% trichloroactetic acid in acetonitrile. The NAD+ and ADPR concentrations were analyzed by a RapidFire High Throughput Mass Spectrometry System (Agilent Technologies, Santa Clara, CA) using an API4000 triple quadrupole mass spectrometer (AB Sciex Framingham, MA).

Row | IC50 [µM] | SMILES
1 | < 5 | N#Cc1cc(N2CCC[C@H](NC(=O)c3cncnc3)C2)nc2ccc(Br)cc12 [Example 139]
2 | < 5 | C[C@@H]1CCC[C@H](C)N1c1cc(C#N)c2cc(C#N)ccc2n1 [Example 140]
3 | < 5 | N#Cc1cc(N2CC[C@H](C(=O)N3CCCC3)C2)nc2ccc(Br)cc12 [Example 142]
4 | < 5 | N#Cc1cc(N2CC[C@@H](C(=O)N3CCCC3)C2)nc2ccc(Br)cc12 [Example 143]
5 | < 5 | N#Cc1cc(N2CCCC23CCOC3)nc2ccc(Br)cc12 (stereo not drawn) [Example 145]
6 | < 5 | N#Cc1cc(N2CCC[C@@H]2C(=O)N2CCCC2)nc2ccc(Br)cc12 [Example 146]
7 | < 5 | C[C@@H]1CCC[C@H](C)N1c1cc(C#N)c2cc(C(C)(C)O)ccc2n1 [Example 148]
8 | < 5 | N#Cc1cc(N2CCCC(c3ccccn3)C2)nc2ccc(Br)cc12 (stereo not drawn) [Example 150]

The next lines start with the compound.

Row | SMILES | IC50 [µM]
9 | N#Cc1cc(N2CCC[C@@H](C(=O)NCc3cnccn3)C2)nc2ccc(Br)cc12 [Example 141] | < 5
10 | C[C@@H]1CCC[C@H](C)N1c1cc(C#N)c2ccccc2n1 [Example 144] | < 5
11 | CC(O)c1ccc2nc(N3[C@H](C)CCC[C@@H]3C)cc(C#N)c2c1 (stereo partly drawn) [Example 147] | < 5
12 | C[C@@H]1CCC[C@H](C)N1c1cc(C#N)c2cc(CO)ccc2n1 [Example 149] | < 5
13 | Cn1ccnc1C1CCCN(c2cc(C#N)c3cc(Br)ccc3n2)C1 (stereo not drawn) [Example 151] | < 5
14 | N#Cc1cc(N2CCCC(c3ncccn3)C2)nc2ccc(Br)cc12 (stereo not drawn) [Example 152] | < 5
15 | N#Cc1cc(N2CCCC(n3cccn3)C2)nc2ccc(Br)cc12 (stereo not drawn) [Example 153] | < 5
